Experiments:
Assay type in all cases: cell-based, human
[1] = test system: colon cancer cell line RKO; assay: Cell cycle analysis by PI flow cytometry
Experimental: The effects of Asperphenin B on the cell cycle of the colon cancer cell line RKO was confirmed by flow cytometry.
RKO cells (ATCC) were diluted in a medium containing 10% (v/v) FBS to become 1×10^5 cells/ml, and then, inoculated into a 60 mm culture dish. The inoculated cells were cultured for about 24 hours at a temperature of 37° C. under the condition of 5% CO2. The cultured cells were washed with phosphate-buffered saline (PBS) once, and the medium was replaced by a fresh medium. Asperphenin B at the final concentration of 0.625 μM, 1.25 μM, 2.5 μM, 5 μM, or 10 μM was added to the cultured cells, and then, the cells were cultured at a temperature of 37° C. under condition of 5% CO2.
After a certain period of time, cells attached to the culture dish and cells not attached to the medium were collected. The collected cells was washed with PBS once, and then, 1 ml of cold 70% (v/v) ethanol. The cells were incubated at a temperature of 4° C. for about 12 hours to fix the cells. After removing 70% (v/v) ethanol, the fixed cells were washed with PBS once. 500 μl of RNase A (Sigma Aldrich) at a concentration of 50 μg/ml as added to the cells, and the cells were incubated at room temperature for about 30 minutes. Propidium iodide (PI) at a final concentration of 50 μg/ml was added to the cells, and then, the cells were incubated at room temperature for about 30 minutes in a condition where reactants were in the shaded state. The cells stained with PI were subjected to analysis of cell cycle by using a BD FACSCalibur flow cytrometer (manufactured by BD Biosciences). Based on the flow cytometry results, cell ratios at the sub-G1, G0/G1, S, and G2/M phases were calculated. Here, as a negative control, cells to which Asperphenin B was not added was used.
When the RKO cells were incubated for 48 hours in the presence of Asperphenin B, cell ratios (%) dependent on the concentration of Asperphenin B are shown in FIG. 3A and Table 5. When the RKO cells were incubated in the presence of Asperphenin B at the concentrations of 2.5 μM and 5 μM, cell ratios (%) dependent on the incubation time are shown in FIGS. 3B and 3C, and Table 6.

RKO cells [2] = assay: ROS production, DCFH-DA flow cytometry; conditions: 24 hours
Experimental: In detail, as described in Example 2-3, Asperphenin B at the concentration of 2.5 μM, 5 μM, or 10 μM wad added to the RKO cells. Cells were collected after the RKO cells were cultured for 24 hours. In addition, a cell group in which 5 mM of N-acetylcysteine (NAC) (Sigma Aldrich), which is an antioxidant, was added to 5 μM and […] of Asperphenin B was prepared as a comparative group, whereas a cell group in which none of Asperphenin B and NAC was contained as a control.
Afterwards, 2′,7′-dichlorofluorescin diacetate (DCFH-DA) (Sigma Aldrich) having a final concentration of 20 μM was added to the cell culture medium, and then, cultured at a temperature of 37° C. for 30 minutes under the condition of 5% CO2. Cells attached to the cell medium and cells not attached to the cell medium were all collected, washed with cold PBS twice, and then, suspended again in 1 ml of PBS to measure intensity of 2′,7′-dichlorofluorescin (DCF) by using a BD FACSCalibur flow cytrometer (manufactured by BD Biosciences).

RKO cells [3] = assay: Annexin V-FITC/PI apoptosis measurement by flow cytometry; conditions: 48 hours, 0.625-10 μM, FIG. 4
Experimental: The process of apoptosis in the cell line RKO by Asperphenin B was confirmed using a Annexin V-FITC apoptosis measuring kit (manufactured by D Pharmingen).
As described in Example 2-3, Asperphenin B at the concentration of 0.625 μM, 1.25 μM, 2.5 μM, 5 μM, or 10 μM was added to the RKO cells, cultured for 48 hours to obtain cells. 300 μl of 1× binding buffer was added to the obtained cells, and well mixed together. Then, 5 μl of Annexin V and 5 μl of PI were added to 100 μl of the cell mixture, and allowed to react at room temperature for 15 minutes in the shaded stated. 400 μl of 1× binding buffer was added to the reactants, a FACSCalibur flow cytometer (BD FACSCalibur, BD Biosciences) was used to analyze the cell apoptosis. Based on the flow cytometry results, ratios of cells that were not stained (i.e., living cells), cells stained with annexin V (i.e., cells apoptosized at the early state), cells stained with both PI and annexin V (i.e., cells apoptosized at the late state or cells necrotized), or cells stained with PI only (i.e., cells necrotized) were calculated. As a negative control, cells to which Asperphenin B was not added were used.

[4] = RKO cells, 2.5 μM, 48 hours, Table 6
[5] = RKO cells, 5 μM, 48 hours, Table 6
[6] = RKO cells, 48 hours, 2.5 μM, Table 5
[7] = RKO cells, 48 hours, 5 μM, Table 5

## CCCCCCCCC[C@@H](O)CC(=O)N[C@@H](CC(N)=O)C(=O)N[C@@H](CCC(N)=O)C(=O)N[C@H](CC(=O)c1cc(C)cc(O)c1C(=O)c1c(O)cccc1O)CC(C)C [Asperphenin B]
[1]; 2.5 μM or 5 μM, until 24 hours of treatment
  Effect on cells in the G2/M phase: cell cycle arrest
[1]; RKO cells, 2.5 μM or 5 μM, 48 hours
  Effect after 48 hours of treatment: cell apoptosis was induced
[1]; RKO cells, 2.5 μM, 6 hours
  Cell ratio, G0/G1 phase: 62.16%
  Cell ratio, G2/M phase: 18.28%
  Cell ratio, S phase: 13.82%
  Cell ratio, Sub-G1 phase: 3.77%
[1]; RKO cells, 2.5 μM, 12 hours
  Cell ratio, G0/G1 phase: 56.50%
  Cell ratio, G2/M phase: 22.18%
  Cell ratio, S phase: 15.09%
  Cell ratio, Sub-G1 phase: 3.25%
[1]; RKO cells, 2.5 μM, 24 hours
  Cell ratio, G0/G1 phase: 30.73%
  Cell ratio, G2/M phase: 40.76%
  Cell ratio, S phase: 17.38%
  Cell ratio, Sub-G1 phase: 5.03%
[1]; [4]
  Cell ratio, G0/G1 phase: 17.80%
  Cell ratio, G2/M phase: 39.31%
  Cell ratio, S phase: 6.55%
  Cell ratio, Sub-G1 phase: 33.38%
[1]; RKO cells, 5 μM, 6 hours
  Cell ratio, G0/G1 phase: 60.66%
  Cell ratio, G2/M phase: 20.21%
  Cell ratio, S phase: 13.48%
  Cell ratio, Sub-G1 phase: 3.19%
[1]; RKO cells, 5 μM, 12 hours
  Cell ratio, G0/G1 phase: 57.60%
  Cell ratio, G2/M phase: 20.93%
  Cell ratio, S phase: 14.63%
  Cell ratio, Sub-G1 phase: 3.80%
[1]; RKO cells, 5 μM, 24 hours
  Cell ratio, G0/G1 phase: 28.35%
  Cell ratio, G2/M phase: 48.88%
  Cell ratio, S phase: 14.08%
  Cell ratio, Sub-G1 phase: 4.86%
[1]; [5]
  Cell ratio, G0/G1 phase: 20.53%
  Cell ratio, G2/M phase: 23.37%
  Cell ratio, S phase: 5.90%
  Cell ratio, Sub-G1 phase: 48.23%
[1]; RKO cells, 48 hours, 0.625 μM
  Cell ratio, G0/G1 phase: 52.49%
  Cell ratio, G2/m phase: 29.56%
  Cell ratio, S phase: 8.11%
  Cell ratio, Sub-G1 phase: 7.14%
[1]; RKO cells, 48 hours, 1.25 μM
  Cell ratio, G0/G1 phase: 23.02%
  Cell ratio, G2/m phase: 43.94%
  Cell ratio, S phase: 6.39%
  Cell ratio, Sub-G1 phase: 24.18%
[1]; [6]
  Cell ratio, G0/G1 phase: 17.99%
  Cell ratio, G2/m phase: 34.58%
  Cell ratio, S phase: 6.63%
  Cell ratio, Sub-G1 phase: 38.60%
[1]; [7]
  Cell ratio, G0/G1 phase: 17.59%
  Cell ratio, G2/m phase: 15.97%
  Cell ratio, S phase: 5.29%
  Cell ratio, Sub-G1 phase: 59.90%
[1]; RKO cells, 48 hours, 10 μM
  Cell ratio, G0/G1 phase: 17.07%
  Cell ratio, G2/m phase: 8.92%
  Cell ratio, S phase: 5.46%
  Cell ratio, Sub-G1 phase: 67.82%
RKO cells [2]
  Production of ROS relative to the control: about 2.4 times
RKO cells [2]; 2.5 μM
  Ratio of cells producing ROS: 8.14%
RKO cells [2]; 5 μM
  Ratio of cells producing ROS: 13.86%
RKO cells [2]; 5 μM Asperphenin B + 5 mM NAC
  Ratio of cells producing ROS: 1.41%
RKO cells [2]; 10 μM
  Ratio of cells producing ROS: 14.26%
RKO cells [2]; 10 μM Asperphenin B + 5 mM NAC
  Ratio of cells producing ROS: 2.55%
RKO cells [3]
  Ratio of necrotic cells compared to control: increased
  Ratios of cells of early apoptosis and cells of late apoptosis or necrosis compared to control: increased

— patent US10759831B2, “Peptide compound, production method therefor, and use thereof” (iNtRON Biotechnology, Inc., priority 2014, dated 2020)
